In one data set the target is human NAMPT (Homo sapiens (Human), UniProt P43490). Description: NMN fluorescence biochemical assay (human recombinant NAMPT enzyme assay). Summed up: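 Activation of recombinant human NAMPT (6 nM) was tested with 2.5 mM ATP, 20 μM PRPP and 150 μM nicotinamide in 50 mM HEPES pH 7.2 for 60 min at ambient temperature. NMN was derivatized with acetophenone/KOH/formic acid and read by fluorescence (355/460 nm) after 40 min.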

Data set [1] can be described thus: Brain exposure assay in mice (brain-to-plasma ratio after oral administration). The data set is classed as in vivo. The note with it: mouse, 100 mg/kg; for concentration at 6 h / Kp at 2 h / Kp uu at 2 h / Kp at 6 h / Kp uu at 6 h: male, C57BL/6JNIFDC, oral; for Kp at 2 h / Kp at 6 h: total brain-plasma concentration ratio; for Kp uu at 2 h / Kp uu at 6 h: unbound brain-to-plasma partition coefficient; for Kp at 2 h / Kp uu at 2 h / Cbrain, free (μM) / Cbrain, total (μM) / Cplasma, free (μM) / Cplasma, total (μM): 2 hr. The procedure: This protocol was used to determine the brain-to-plasma ratio in vivo in mice post oral administration of test compounds. Mice (C57BL/6JNIFDC, male, non-fasted, 18-30 g body weight, 3 mice for each timepoint) were dosed orally at 100 mg/kg (10 mg test compound/mL formulation, 10 mL dosing volume/kg) with plasma and brain tissues obtained at 2- and 6-hours post-administration. The oral dosing formulation composition used was 10% N,N-dimethylacetamide:20% propylene glycol:70% of 40% aqueous 2-hydroxypropyl-β-cyclodextrin.
For the isolation of mouse plasma from dosed animals, approximately 0.3 mL blood was collected by orbital sinus bleed and centrifuged (4000 g, 5 minutes, 4° C.). The plasma samples were stored frozen at −75±15° C. until further processing.
For the isolation of brain tissue from dosed animals, whole brain tissues were collected from euthanized and fully exsanguinated mice. The tissues were quickly rinsed with distilled water, dried with absorbent paper, followed by rapid freezing on dry ice and then storage at −75±15° C. until further processing. Brain tissue samples obtained from frozen whole brain were weighed and the samples homogenized using three equivalents of distilled water (3 mL per gram of brain tissue).
Standard and quality control samples were prepared by adding 3 μL of the test compound dimethyl sulfoxide (DMSO) stock solutions to blank plasma (30 μL) and blank brain homogenate aliquots (30 μL). Standard curves for brain and plasma were generated over a 1 to 1,000 ng/g test compound concentration range. For the extraction of test compound from plasma and brain tissue homogenate samples, a solution of acetonitrile containing internal standard ([…]) was added to 30 μL of samples with added 3 μL of DMSO. The samples then were vortex-mixed followed by centrifugation at 4000 rpm (4° C., 15 minutes). The resultant supernatants were diluted 5-fold with distilled water. Finally, 10 μL of the diluted supernatant was injected onto an LC-MS/MS instrument for quantitative analysis of test compound.
The brain-to-plasma ratio was calculated by the relationship: Brain-to-plasma ratio=Cbrain/Cplasma; where Cb is the concentration in brain tissue and Cp is the concentration in plasma at the corresponding timepoint.
Kp is the total brain-plasma concentration ratio; Kp=Cbrain/Cplasma.
Kp, uu is the unbound brain-to-plasma partition coefficient (Kp,uu,brain). It is a measure of the extent of the distribution equilibrium of a compound between the unbound (free) fractions in brain and in blood plasma; Kp, uu brain=Cu, brain/Cu, plasma.

The nature of data set [2]: Plasma protein binding (PPB), mouse. It counts as in vitro ADME.
Data set [3] can be described thus: Brain tissue binding, mouse. It counts as in vitro ADME.
Data set [4] relates to MDCK-MDR1 cells (P-gp, MDR1). Description: MDR1-MDCK bidirectional permeability assay. To be noted: A to B.
Protocol: (§1) A bidirectional permeability assay using Madin Darby canine kidney cells expressing multi-drug resistance gene 1 (MDCK-MDR1) is routinely used to evaluate discovery compounds' BBB permeability and drug efflux toward the advancement of discovery compounds with brain penetration.
(§2) MDCK-MDR1 Cells (NIH cell line) were obtained from the National Institutes of Health. […] Cell culture medium was replaced every other day, beginning no later than 24 hours after the initial plating. […] The dosing solution concentration was 1 μM for the test article in the assay buffer. Cell monolayers were dosed on the apical side (A-to-B) or basolateral side (B-to-A) and incubated at 37° C. under an atmosphere of 5% CO2 in a humidified incubator. Samples were taken from the donor and receiver chambers at 120 minutes. Each determination was performed in duplicate. After the 120 min transport period, the flux of lucifer yellow was also measured for each monolayer to ensure no damage was inflicted to the cell monolayers during the transport period. All samples were assayed by LC-MS/MS (Waters XSelect HSS T3 C18, 2.5 m, 2.1×50 mm) using electrospray ionization with 0.1% formic acid in water (mobile phase A) and 0.1% formic acid in acetonitrile (mobile phase B) as mobile phases. The apparent permeability coefficient (Papp), in units of cm per second, was calculated for MDCK-MDR1 Cells (NIH cell line) drug transport assays using the following equation:
(§3) Where VA is the volume (in mL) in the acceptor well, Area is the surface area of the membrane (0.143 cm^2 for Transwell-96 Well Permeable Supports), and time is the total transport time in seconds.
(§4) The leakage of Lucifer Yellow (LY), in unit of percentage (%), can be calculated using the following equation:
(§5) LY leakage of <1% is acceptable to indicate the well-qualified MDCK-MDR1(NIH) monolayer.
The test system of data set [5] is P-gp (MDR1). Description: MDR1-MDCK bidirectional permeability assay. To be noted: dog, MDCK-MDR1, pH 7.4, Efflux ratio.
Protocol: as §1, §2, §3, §4, §5
The subject of data set [6] is MDCK-MDR1 cells (P-gp, MDR1). The note with it: dog, MDCK-MDR1, 120 min, 1 μM, pH 7.4.
Protocol: as §1, §2, §3, §4, §5
Data set [7] deals with P-gp (MDR1). The data set can be described thus: in vitro. To be noted: dog, MDCK-MDR1, pH 7.4, Efflux ratio.
Protocol: as §1, §2, §3, §4, §5
The mark [8] stands for this setting: plasma, read-out: Cplasma, free.
[9] abbreviates: plasma, read-out: Cplasma, total.

Like-named read-outs stand apart in the source and are kept apart here.

From patent publication US20240279215A1 (Cytokinetics, Incorporated, priority 2022, published 2024) come the findings set out here.

As a reminder, the EC50 is the concentration at which the effect is half-maximal. In general, Kp refers to the ratio of the level in a tissue or fluid to that in plasma or blood. What is called fraction unbound is the share of the substance not bound to proteins or other matrix. The efflux ratio is the permeability from basolateral to apical divided by that in the opposite direction, in the common usage.

Sequence of human NAMPT (P43490 whole entry): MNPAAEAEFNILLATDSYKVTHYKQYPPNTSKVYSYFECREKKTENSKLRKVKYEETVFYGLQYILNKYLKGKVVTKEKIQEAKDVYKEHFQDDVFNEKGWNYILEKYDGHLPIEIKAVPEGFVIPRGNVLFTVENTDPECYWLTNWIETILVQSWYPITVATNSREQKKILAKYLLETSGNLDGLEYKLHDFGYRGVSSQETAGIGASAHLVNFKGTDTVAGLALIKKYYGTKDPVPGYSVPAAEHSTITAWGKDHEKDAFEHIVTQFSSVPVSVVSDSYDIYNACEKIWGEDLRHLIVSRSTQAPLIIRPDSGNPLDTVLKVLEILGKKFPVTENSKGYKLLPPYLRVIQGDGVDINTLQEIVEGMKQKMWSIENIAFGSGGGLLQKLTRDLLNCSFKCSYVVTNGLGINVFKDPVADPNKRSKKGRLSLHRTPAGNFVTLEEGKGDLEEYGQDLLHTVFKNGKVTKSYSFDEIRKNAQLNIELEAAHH

In the case of `CN(C)S(=O)(=O)N1CCC(Cc2ccc(NC(=O)OCc3cnco3)cc2)CC1` [Compound 27, oxazol-5-ylmethyl (4-((1-(N,N-dimethylsulfamoyl)piperidin-4-yl)methyl)phenyl)carbamate], on human NAMPT, the “AC1.4 Human” value worked out at 0.36 µM and the EC50 was found to be 5.25 µM. For the same molecule, in data set [1] (brain, read-out: Cbrain, free), the concentration at 6 h is 70 nM. In data set [1] (brain, read-out: Cbrain, total), the concentration at 6 h was determined as 1500 nM. Further, the concentration at 6 h in data set [1] (setting [8]) is 220 nM. The concentration at 6 h in data set [1] (setting [9]) amounted to 5900 nM. In data set [1], the Kp at 2 h stood at 0.29, the Kp uu at 2 h came out at 0.41, the Kp at 6 h was determined as 0.25 and the Kp uu at 6 h was found to be 0.32. For the same molecule, in data set [1], the “Cbrain, free (μM)” value is 0.64, μM; the “Cbrain, total (μM)” value is recorded as 12.0, μM; the “Cplasma, free (μM)” value is reported as 1.55, μM; the “Cplasma, total (μM)” value is 42.1, μM. In data set [2] (mouse, plasma), the fraction unbound amounted to 0.037. In data set [3] (mouse, brain tissue), this molecule displayed a fraction unbound of 0.053. Besides, the PappAB in data set [4] came out at 7.68. Also, the efflux ratio at 120 min, 1 μM with P-gp (MDR1) [5] is 1.99.

Turning to `CN(C)C(=O)N1CCC[C@H](c2ccc(NC(=O)OCc3cnco3)cc2)C1` [Compound 376, oxazol-5-ylmethyl (R)-(4-(1-(dimethylcarbamoyl)piperidin-3-yl)phenyl)carbamate], at human NAMPT, the “AC1.4 Human” value was 0.06 µM and the EC50 came to 2.02 µM. The concentration at 6 h in data set [1] (brain, read-out: Cbrain, free) was 1000 nM. Also, the concentration at 6 h in data set [1] (brain, read-out: Cbrain, total) turned out to be 7500 nM. Besides, the concentration at 6 h in data set [1] (setting [8]) was 1090 nM. Further, the concentration at 6 h in data set [1] (setting [9]) turned out to be 45500 nM. In addition, in data set [1], the Kp at 2 h came to 0.16, the Kp uu at 2 h was 0.89, the Kp at 6 h came out at 0.16 and the Kp uu at 6 h worked out at 0.92. Further, in data set [1], the “Cbrain, free (μM)” value was 2.2, μM; the “Cbrain, total (μM)” value is reported as 16.5, μM; the “Cplasma, free (μM)” value is on record as 2.48, μM; the “Cplasma, total (μM)” value is listed as 104, μM. Besides, the fraction unbound in data set [2] (mouse, plasma) is 0.024. The fraction unbound in data set [3] (mouse, brain tissue) is 0.132. Moreover, in data set [4], the PappAB is 8.06. Besides, the efflux ratio at 120 min, 1 μM with P-gp (MDR1) [5] was determined as 4.11.

For `O=C(Nc1ccc(CC2CC3CCC(C2)N3S(=O)(=O)C2CC2)cc1)OCc1cnco1` (stereo not drawn) [Compound 395, oxazol-5-ylmethyl (4-((8-(cyclopropylsulfonyl)-8-azabicyclo[3.2.1]octan-3-yl)methyl)phenyl)carbamate], on human NAMPT, the “AC1.4 Human” value was 0.12 µM and the EC50 worked out at 3.2 µM. Moreover, the PappAB in data set [6] was 2.81. Moreover, the efflux ratio at 120 min, 1 μM with P-gp (MDR1) [7] turned out to be 5.02.

For `CN(C)S(=O)(=O)N1CC2(CC(Cc3ccc(NC(=O)OCc4cnco4)cc3F)C2)C1` [Compound 399, oxazol-5-ylmethyl (4-((2-(N,N-dimethylsulfamoyl)-2-azaspiro[3.3]heptan-6-yl)methyl)-3-fluorophenyl)carbamate], at human NAMPT, the “AC1.4 Human” value turned out to be 0.15 µM and the EC50 is 3.88 µM. The concentration at 6 h in data set [1] (brain, read-out: Cbrain, free) stood at 140 nM. In data set [1] (brain, read-out: Cbrain, total), the concentration at 6 h came to 11500 nM. For the same molecule, the concentration at 6 h in data set [1] (setting [8]) stood at 270 nM. Further, in data set [1] (setting [9]), the concentration at 6 h was 26800 nM. Further, in data set [1], the concentration ratio (Kp) at 2 h was found to be 0.44, the Kp uu at 2 h was found to be 0.52, the Kp at 6 h is 0.43 and the Kp uu at 6 h was determined as 0.52. Further, in data set [1], the “Cbrain, free (μM)” value is recorded as 0.23, μM; the “Cbrain, total (μM)” value is on record as 19.5, μM; the “Cplasma, free (μM)” value is reported as 0.44, μM; the “Cplasma, total (μM)” value is recorded as 44, μM. The molecule also registered a fraction unbound in data set [2] of 0.01. This molecule also displayed a fraction unbound in data set [3] of 0.012.

Turning to `CN(C)C(=O)N1CC2(CC(c3ccc(NC(=O)OCc4cnco4)cc3F)C2)C1` [Compound 400, oxazol-5-ylmethyl (4-(2-(dimethylcarbamoyl)-2-azaspiro[3.3]heptan-6-yl)-3-fluorophenyl)carbamate], on human NAMPT, the “AC1.4 Human” value came out at 0.11 µM and the EC50 turned out to be 15.4 µM. Besides, in data set [1] (brain, read-out: Cbrain, free), the concentration at 6 h amounted to 80 nM. In data set [1] (brain, read-out: Cbrain, total), the concentration at 6 h worked out at 1400 nM. Also, the concentration at 6 h in data set [1] (setting [8]) worked out at 140 nM. In data set [1] (setting [9]), the concentration at 6 h stood at 3100 nM. In data set [1], the Kp at 2 h came out at 0.43, the Kp uu at 2 h stood at 0.53, the Kp at 6 h worked out at 0.43 and the Kp uu at 6 h was found to be 0.57. Also, in data set [1], the “Cbrain, free (μM)” value is recorded as 0.31, μM; the “Cbrain, total (μM)” value is on record as 5.8, μM; the “Cplasma, free (μM)” value was 0.58, μM; the “Cplasma, total (μM)” value is listed as 13.5, μM. Further, the fraction unbound in data set [2] was 0.043. Besides, in data set [3], the fraction unbound was found to be 0.054.

Regarding `CN(C)C(=O)N1CCC(Cc2ccc(NC(=O)OCc3cnco3)cc2F)CC1` [Compound 449, oxazol-5-ylmethyl (4-((1-(dimethylcarbamoyl)piperidin-4-yl)methyl)-3-fluorophenyl)carbamate], at human NAMPT, the “AC1.4 Human” value was 0.10 µM and the EC50 came to 2.93 µM. For the same molecule, the concentration at 6 h in data set [1] (brain, read-out: Cbrain, free) came out at 280 nM. In addition, the concentration at 6 h in data set [1] (brain, read-out: Cbrain, total) is 8400 nM. Moreover, the concentration at 6 h in data set [1] (setting [8]) was 390 nM. Also, the concentration at 6 h in data set [1] (setting [9]) was 18000 nM. Further, in data set [1], the Kp at 2 h came out at 0.42, the Kp uu at 2 h amounted to 0.64, the concentration ratio (Kp) at 6 h is 0.47 and the Kp uu at 6 h was 0.72. For the same molecule, in data set [1], the “Cbrain, free (μM)” value is 0.83, μM; the “Cbrain, total (μM)” value is 25.0, μM; the “Cplasma, free (μM)” value is reported as 1.30, μM; the “Cplasma, total (μM)” value is recorded as 59.4, μM. For the same molecule, the fraction unbound in data set [2] (mouse, plasma) is 0.022. The same molecule yielded an unbound share (fraction unbound) in data set [3] (mouse, brain tissue) of 0.033. Further, the PappAB in data set [4] came out at 3.53. Besides, in the data set on P-gp (MDR1) [5], the efflux ratio at 120 min, 1 μM turned out to be 5.74.
